Test results taken from patent US12480950B2, “AKT-specific capture agents, compositions, and methods of using and making” (California Institute of Technology, priority 2011, dated 2025).
Square brackets hold non-standard residues; d marks the D form. Ends that are not written are not given here. Pra = C#CC[C@H](N)C(=O)O; Az8 = not defined here

What was measured:
[1] = tested on: Akt1; experiment: Specificity ELISA, immobilized ligand probed with His-tagged kinases; design: species or system H. sapiens; settings: A450 normalized to Akt1-S473E binding; kinase panel
Procedure: (§1) Biotinylated ligand was immobilized on Streptavidin plates and probed with 25 nM His-tagged kinase followed by anti-Histag antibody-HRP conjugate. Values represent the mean A450 obtained from three experiments after normalization to Akt1-S473E binding. The error bars show the standard error.
(§2) The specificity of the anchor ligand, biligand, and triligand developed in Example 1 was analyzed using a battery of protein kinases. […] Akt1-S473E was expressed and purified as described above.
(§3) The relative affinity of each kinase was determined by probing with an anti-His6 antibody and normalizing the response to Akt1-S473E. All proteins were diluted in Akt blocking buffer to a final concentration of 24 nM prior to use. Ligands were diluted in Akt blocking buffer to a final concentration of 2.5 μM prior to use. 100 μL of each ligand (250 pmol) was added to each well of a HBC streptavidin-coated 96-well plate. The ligands were bound at 4° C. for 1 hour followed by addition of D-biotin to a final concentration of 500 μM. After 10 minutes at 4° C., the wells were washed three times with Akt blocking buffer and blocked overnight in 5% non-fat milk.
(§4) The wells were washed three times in Akt blocking buffer and 50 μL of active protein was applied to each well. After binding for 120 minutes at 4° C., the wells were washed three times in Akt blocking buffer to remove unbound protein. 50 μL of horseradish peroxidase-conjugated Anti-His6 antibody was added at a dilution of 1:100 (His Probe (H-3) HRP conjugate, Santa Cruz Biotechnology). The antibody-HRP conjugate was incubated for 60 minutes and the wells were washed 3 times in TBST and once in TBS. 50 μL of peroxidase substrate (KPL) was added and the resulting color change was quenched with 50 μL 1 M H2SO4. The A450 measured on a 96-well plate reader. […] The mean value for the triplicates was calculated and plotted and the error bars were generated from the standard error of the mean (GraphPad Prism).

[2] = tested on: Akt; experiment: Immunoprecipitation of Akt from OVCAR3 cell lysates with immobilized ligands; format: binding; settings: EGF and insulin induced or control, Western blot with pan-Akt antibody
Procedure: A representative 12% gel stained with Coomassie and imaged. Lane 1: Lysate, Lane 2: Anchor resin, Lane 3: Biligand resin, Lane 4: Triligand resin, Lane 5: 5G3 mAb resin.
After 18 hours at 4° C., resins were washed exhaustively, eluted with SDS-PAGE sample buffer, and analyzed by Western blotting. 1. Blank resin, 2. Anchor, 3. Biligand, 4. Triligand, 5. [5G3] mAb, L. lysate.
For the IP experiments, the anchor, biligand, and triligands were immobilized on streptavidin-agarose, and each resin was panned with OVCAR3 cell lysates obtained from untreated cells or cells stimulated with a combination of epidermal growth factor (EGF) and insulin.
OVCAR3 cells were grown in RPMI-1640 media containing 10% fetal bovine serum, penicillin, and streptomycin. Passage 4 cells were grown to ˜60% confluence and treated with insulin and EGF at final concentration of 10 μg/mL and 20 ng/mL respectively (induced) or mock treated (control). Cells were grown for an additional 24 hours and then lysed with lysis buffer (10 mM Tris-Cl (pH=7.5), 100 mM NaCl, 1% (v/v) Triton X-100, 0.1% SDS (w/v), 0.5% deoxycholate, 1 mM DTT, 1 mM EDTA, 1× PhosStop phosphatase inhibitors (Roche), 1× Complete protease inhibitors (Roche). Cell lysate protein concentrations were determined by Bradford assays. […]

[3] = biological target: T1, GSK3β (Homo sapiens, UniProt P49841); experiment: Specificity ELISA, immobilized ligand probed with His-tagged kinases; settings: A450 normalized to Akt1-S473E binding
T1 construct: a set of His-tagged active protein kinase domains from the AGC family; purchased Invitrogen
Procedure: as §1, §2, §3, §4

[4] = biological target: T2, E17K mutant Akt1 PH Domain (Homo sapiens, UniProt P31749, E17K); experiment: Streptavidin-agarose pulldown assay; format: binding; settings: Western blot, relative protein band sizes
T2 construct: The first 124 N-terminal amino acids from full length Akt1 were used as the PH Domain DNA; thrombin cleavage site (C); 6-His (C); made in house; host or cells: E. coli
Procedure: (§5) These resins were then incubated with either (a) WT or (b) E17K Mutant PHD to measure the amount of pulldown for each potential anchor ligand. Peptide eefef is SEQ ID NO:5. Peptide yleaf is SEQ ID NO:16.
(§6) Pulldown assays were done on Streptavidin Agarose resin from Novachem. The resin was incubated with N-terminally biotinylated anchor peptide candidates identified via the ClusterLigand sequence analysis. The anchor candidate coated beads were then incubated with both wildtype and mutant protein to compare the selectivity of the ligands, as well as the binding ability.
(§7) Assays were done with 50 uL of Streptavidin-Agarose slurry (25 uL resin) in Spin-X tubes. Resin was aliquotted into 14 tubes—six ligands plus a blank tested against two different proteins, then washed three times with 1×TBS with 0.25% IPEGAL detergent added. Each set of tubes was incubated with 170 nmol of the appropriate biotinylated ligand in 200 uL 1×HEPES (10 mM HEPES, 150 mM NaCl, 0.25% IPEGAL, 5 mM EDTA) or plain buffer for the blank. Ligand binding was done for one hour at room temperature, then resin was washed three times with 1×HEPES. Resin was blocked with 1×HEPES with 5% BSA for two hours. The anchor-coated resin was then incubated with either wildtype or mutant expressed PH domain protein overnight (˜16 hours) in cold room (4° C.). Protein was spun out of tubes, and the resin was washed three times with high salt TBS, then incubated for five minutes in the high salt buffer. The resin was then washed three times with the 1×TBS buffer, and spun out to dry completely. 50 uL of denaturing SDS gel loading buffer with 10% B-mercaptoethanol was added to the samples and they were incubated at 95° C. for ten minutes to denature. The gel loading buffer was spun out of the Spin-X tubes and the samples were run on an Any KD BioRad Premade Gel under denaturing conditions. Gel was transferred to nitrocellulose membrane and western blotted. Proteins were detected using rabbit polyclonal anti-Akt1 antibody (ab64148, Abcam) and an anti-rabbit HRP conjugated secondary anti-body then developed with West Pico Chemilluminescent substrate (Pierce).

[5] = biological target: T3, wildtype Akt1 PH Domain (Homo sapiens, UniProt P31749); experiment: Streptavidin-agarose pulldown assay; format: binding; settings: Western blot, relative protein band sizes
T3 construct: The first 124 N-terminal amino acids from full length Akt1 were used as the PH Domain DNA; thrombin cleavage site (C); 6-His (C); made in house; host or cells: E. coli
Procedure: as §5, §6, §7

[6] = tested on: Akt1-S473E-T308P; experiment: Phosphorylation of biotinylated anchor peptide in standard kinase reaction; format: biochemical, H. sapiens; settings: 30 min at room temperature, liquid scintillation counting
Procedure: Biotinylated peptides were incubated in a standard kinase reaction mixture for 30 min. at room temperature. A portion of the reaction was spotted onto a SAM2 Biotin Capture Membrane (Promega), washed, and analyzed by liquid scintillation counting. The total counts per minute (cpm) are shown for the anchor peptide (VFYRL-Bio(1) (SEQ ID NO:22) and VFYRL-Bio(2) (SEQ ID NO:22)) as well as the standard substrate peptide (Bio-Crosstide). The number in parentheses identifies the diastereomer based on retention time in RP-HPLC.
(§8) Candidate sequences were scaled up and tested for their ability to inhibit Akt1-S473E-T308P activity. […] This peptide was re-synthesized as a C-terminal biotinylated peptide and used as the anchor in the biligand screen.

[7] = biological target: Akt-S473E; experiment: ELISA with immobilized Akt-S473E, relative affinity of biotinylated ligands; format: binding, H. sapiens; settings: read-out: binding affinity for Akt
Procedure: Akt-S473E was immobilized on Ni-NTA plates and incubated with varying concentrations of biotinylated peptide. All values were normalized to the binding observed at saturation.
The affinity of the anchor ligand, biligand, and triligand developed in Example 1 was determined by ELISA with immobilized Akt-S473E.
3 μg of Akt-S473E was added to each well in a HisSorb Ni-NTA plate (Qiagen) in 50 μL of ELISA blocking buffer (25 mM Tris-Cl (pH=7.5), 150 mM NaCl, 10 mM MgCl2, 0.1% (v/v) Tween-20, and 4 mg/mL BSA). 50 μL of imidazole blocking buffer (25 mM Tris-Cl (pH=7.5), 150 mM NaCl, 10 mM MgCl2, 0.1% (v/v) Tween-20, 100 mM imidazole, and 4 mg/mL BSA) was added to the control wells. After 18 hours at 4° C., the wells were washed with ELISA blocking buffer and 50 μL of each ligand dilution was added in ELISA blocking buffer. The ligands were bound at 4° C. for 120 minutes followed by three washed in ELISA blocking buffer. 50 μL of horseradish peroxidase-conjugated streptavidin (SA-HRP, Thermo) was added (1:5000 dilution in ELISA blocking buffer) and incubated for 70 minutes at 4° C. […] 50 μL of peroxidase substrate (KPL) was added to generate the final signal which was quenched in 1 M H2SO4 and quantitated on a 96-well plate reader at X=450 nm. The Net A450 was calculated by subtracting the A450 of each blank well (No Akt-S473E) from the experimental well. […]

[8] = tested on: Akt1-S473E-T308P; experiment: [γ-32P]-ATP kinase activity assay, inhibition of Akt1-S473E-T308P; format: biochemical, H. sapiens; settings: 120 μM compound, 30 minutes at room temperature, in the absence and presence of the conjugated small molecule inhibitor
Procedure: Peptide is SEQ ID NO:22. Kinase reactions were carried out with 120 μM of each compound for 30 minutes at room temperature. The amount of phosphorylated substrate was quantitated by liquid scintillation counting and the % Akt1-S473E-T308P activity determined based on the amount of product formed in the control kinase reaction. The values shown are the mean value of three experiments and the error bars are the standard deviation.
The activity of Akt-S473E-T308P was characterized by a [γ-^32P]-ATP kinase activity assay measuring the incorporation of ^32P into biotinylated crosstide peptide (Anaspec). Briefly, reactions containing 80 ng of Akt-S473E-T308P, 50 μM Bio-crosstide, and varying concentrations of ATP/[γ-^32P]-ATP (specific activity=1.5 mCi/mL).
as §8

Chain of Akt1 (P31749 150-408 limits assumed): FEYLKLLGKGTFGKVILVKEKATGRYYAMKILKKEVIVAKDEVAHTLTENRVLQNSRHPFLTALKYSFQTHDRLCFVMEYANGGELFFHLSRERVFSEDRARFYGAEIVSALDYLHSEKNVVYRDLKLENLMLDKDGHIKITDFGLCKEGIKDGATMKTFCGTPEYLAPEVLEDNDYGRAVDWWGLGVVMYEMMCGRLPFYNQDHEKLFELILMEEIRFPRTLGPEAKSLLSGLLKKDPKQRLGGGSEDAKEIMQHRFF
T1 sequence (P49841 56-340 limits assumed, species assumed): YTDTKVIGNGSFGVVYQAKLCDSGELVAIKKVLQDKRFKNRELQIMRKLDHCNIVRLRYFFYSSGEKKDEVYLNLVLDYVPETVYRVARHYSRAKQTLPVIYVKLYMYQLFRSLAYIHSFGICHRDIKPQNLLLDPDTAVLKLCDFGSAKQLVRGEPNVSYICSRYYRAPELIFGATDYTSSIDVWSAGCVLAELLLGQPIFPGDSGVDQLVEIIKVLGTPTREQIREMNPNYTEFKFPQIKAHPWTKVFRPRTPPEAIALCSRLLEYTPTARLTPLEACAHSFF
T2 sequence (P31749 1-124 E17K): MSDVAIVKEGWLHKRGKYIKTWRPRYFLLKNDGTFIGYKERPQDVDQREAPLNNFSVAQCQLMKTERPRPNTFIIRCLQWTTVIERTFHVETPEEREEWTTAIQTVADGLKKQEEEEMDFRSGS
Chain of Akt1-S473E-T308P (P31749 150-449 limits assumed, stated change not applied): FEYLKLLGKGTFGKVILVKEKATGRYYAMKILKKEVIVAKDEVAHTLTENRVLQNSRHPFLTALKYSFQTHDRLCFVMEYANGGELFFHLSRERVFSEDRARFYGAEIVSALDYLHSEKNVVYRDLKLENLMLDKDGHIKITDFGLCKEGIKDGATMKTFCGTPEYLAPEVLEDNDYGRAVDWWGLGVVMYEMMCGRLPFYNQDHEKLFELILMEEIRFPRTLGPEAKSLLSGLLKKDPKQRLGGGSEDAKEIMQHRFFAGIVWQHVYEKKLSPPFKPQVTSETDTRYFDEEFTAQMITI
T3 sequence (P31749 1-124): as the sequence (P31749 1-124 E17K) above, with K17E counted along it
Chain of Akt-S473E (P31749 144-449 limits assumed, stated change not applied): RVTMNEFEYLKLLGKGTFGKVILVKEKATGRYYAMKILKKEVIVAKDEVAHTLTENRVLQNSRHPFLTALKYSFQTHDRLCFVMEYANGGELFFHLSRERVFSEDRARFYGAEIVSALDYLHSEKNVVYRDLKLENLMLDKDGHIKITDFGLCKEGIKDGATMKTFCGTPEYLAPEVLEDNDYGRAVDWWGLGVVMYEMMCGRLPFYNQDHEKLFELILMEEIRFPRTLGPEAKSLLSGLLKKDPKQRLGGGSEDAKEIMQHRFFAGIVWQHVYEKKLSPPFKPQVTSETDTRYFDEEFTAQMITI

Row | Substance | specificity / selectivity for Akt1 [1] | immunoprecipitation of Akt [2] | binding to GSK3β [3] | pulldown of E17K mutant PH Domain [4] | pulldown of wildtype PH Domain [5] | phosphorylation by Akt in vitro [6] | Kd [7] [µM] | inhibition of Akt1 [8] [%]
1 | biligand: anchor ligand Az8-VFYRLGY linked by 1,4-triazole to secondary ligand Pra-FWFLRG-CONH2; biotinylated for assays (peptide 2 [Pra]FWFLRG-NH2; not fully specified (N-terminus, C-terminus, bridges); reading uncertain; also: biotinylated for assays, triazole at chain B 1 to a chain's N-terminus) | reduced selectivity | increased affinity | significant cross-reactivity |  |  |  |  | 
2 | yleaf ([dY][dL][dE][dA][dF]; not fully specified (N-terminus); printed as yleaf; also: biotinylated, position not confirmed) |  |  |  | the greatest binding to the mutant | the least binding to the wildtype |  |  | 
3 | Az8-VFYRLGY-CONH2 [anchor ligand] | very specific for the Akt1 protein |  | only modest binding |  |  | not phosphorylated | > 25 | ~95
4 | eefef ([dE][dE][dF][dE][dF]; not fully specified (N-terminus); printed as eefef; also: biotinylated, position not confirmed) |  |  |  | the least pulldown for the mutant protein | the only pulldown of the wildtype protein |  |  | 
